Columns and labels:
[1] = system: PFOS_JYP_2 (DNA, aptamer) CTCTCGGGACGACGGGGTAACGGTTTGATCTCCTTCGTGTTCTGTCGTCCC; experiment: ThT displacement fluorescence; conditions: pH 7.5; 400 nM aptamer, 10 μM thioflavin T; up to 50 μM
[2] = system: 16T (upper small loop without 16th thymine) (DNA, aptamer) AACGGTTTGATCTCCTCGTG; experiment: ThT displacement fluorescence; conditions: pH 7.5; 400 nM aptamer, 10 μM thioflavin T; up to 50 μM
[3] = system: PFOS_JYP_2 with flanking region shortened to 4 base pairs (DNA, aptamer) CGACGGGGTAACGGTTTGATCTCCTTCGTGTTCTGTCG; experiment: ThT displacement fluorescence; conditions: different PFOS concentrations; highest not stated in material
[4] = system: PFOS_JYP_1 (DNA, aptamer) CTCTCGGGACGACGGGTAGTCTGTGTATGCTCGCAAGCGTGCTGTCGTCCC; experiment: ThT displacement fluorescence, Hill fit; conditions: pH 7.5, RT, 70 min; 400 nM aptamer; 10 μM thioflavin T displaced
[5] = system: PFOS_JYP_2 (DNA, aptamer) CTCTCGGGACGACGGGGTAACGGTTTGATCTCCTTCGTGTTCTGTCGTCCC; experiment: ThT displacement fluorescence, Hill fit; conditions: pH 7.5, RT, 70 min; 400 nM aptamer; 10 μM thioflavin T displaced
[6] = system: PFOS_JYP_3 (DNA, aptamer) CTCTCGGGACGACGGGGGTTGCATCTTTATATGTTTCTTCTCTGTCGTCCC; experiment: ThT displacement fluorescence, Hill fit; conditions: pH 7.5, RT, 70 min; 400 nM aptamer; 10 μM thioflavin T displaced
[7] = system: PFOS_JYP_4 (DNA, aptamer) CTCTCGGGACGACGGGGGGCTATTTCTTCATTCTCTGCTGACTGTCGTCCC; experiment: ThT displacement fluorescence, Hill fit; conditions: pH 7.5, RT, 70 min; 400 nM aptamer; 10 μM thioflavin T displaced
[8] = system: PFOS_JYP_5 (DNA, aptamer) CTCTCGGGACGACGGCCAGATGGAGCTTTTATTTCCCTTCCTCGTCGTCCC; experiment: ThT displacement fluorescence, Hill fit; conditions: pH 7.5, RT, 70 min; 400 nM aptamer; 10 μM thioflavin T displaced
[9] = system: PFOS_JYP_6 (DNA, aptamer) CTCTCGGGACGACGGCAGCTCAGCATCTTTGTTGCCCCTGACTGTCGTCCC; experiment: ThT displacement fluorescence, Hill fit; conditions: pH 7.5, RT, 70 min; 400 nM aptamer; 10 μM thioflavin T displaced
[10] = system: PFOS_JYP_7 (DNA, aptamer) CTCTCGGGACGACCACCAGGTCTCGTCTTATTGGCTATGTGTTGTCGTCCC; experiment: ThT displacement fluorescence, Hill fit; conditions: pH 7.5, RT, 70 min; 400 nM aptamer; 10 μM thioflavin T displaced
[11] = system: upper small loop of PFOS_JYP_2 (DNA, aptamer) AACGGTTTGATCTCCTTCGTG; experiment: ThT displacement fluorescence, Hill fit; conditions: pH 7.5, RT, 70 min; 400 nM aptamer; 10 μM thioflavin T displaced
[12] = system: 16T (upper small loop without 16th thymine) (DNA, aptamer) AACGGTTTGATCTCCTCGTG; experiment: ThT displacement fluorescence, Hill fit; conditions: pH 7.5, RT, 70 min; 400 nM aptamer; 10 μM thioflavin T displaced
[13] = system: 7T (upper small loop without 7th thymine) (DNA, aptamer) AACGGTTGATCTCCTTCGTG; experiment: ThT displacement fluorescence, Hill fit; conditions: pH 7.5, RT, 70 min; 400 nM aptamer; 10 μM thioflavin T displaced
[14] = system: 9G (upper small loop without 9th guanine) (DNA, aptamer) AACGGTTTATCTCCTTCGTG; experiment: ThT displacement fluorescence, Hill fit; conditions: pH 7.5, RT, 70 min; 400 nM aptamer; 10 μM thioflavin T displaced
[15] = system: 10A (upper small loop without 10th adenine) (DNA, aptamer) AACGGTTTGTCTCCTTCGTG; experiment: ThT displacement fluorescence, Hill fit; conditions: pH 7.5, RT, 70 min; 400 nM aptamer; 10 μM thioflavin T displaced
[16] = system: 11T (upper small loop without 11th thymine) (DNA, aptamer) AACGGTTTGACTCCTTCGTG; experiment: ThT displacement fluorescence, Hill fit; conditions: pH 7.5, RT, 70 min; 400 nM aptamer; 10 μM thioflavin T displaced
[17] = system: 15C (upper small loop without 15th cytosine) (DNA, aptamer) AACGGTTTGATCTCTTCGTG; experiment: ThT displacement fluorescence, Hill fit; conditions: pH 7.5, RT, 70 min; 400 nM aptamer; 10 μM thioflavin T displaced
[18] = system: 7T, 16T (DNA, aptamer) AACGGTTGATCTCCTCGTG; experiment: ThT displacement fluorescence, Hill fit; conditions: pH 7.5, RT, 70 min; 400 nM aptamer; 10 μM thioflavin T displaced
[19] = system: 9G, 16T (DNA, aptamer) AACGGTTTATCTCCTCGTG; experiment: ThT displacement fluorescence, Hill fit; conditions: pH 7.5, RT, 70 min; 400 nM aptamer; 10 μM thioflavin T displaced
[20] = system: 10A, 16T (DNA, aptamer) AACGGTTTGTCTCCTCGTG; experiment: ThT displacement fluorescence, Hill fit; conditions: pH 7.5, RT, 70 min; 400 nM aptamer; 10 μM thioflavin T displaced
[21] = system: 11T, 16T (DNA, aptamer) AACGGTTTGACTCCTCGTG; experiment: ThT displacement fluorescence, Hill fit; conditions: pH 7.5, RT, 70 min; 400 nM aptamer; 10 μM thioflavin T displaced
[22] = system: 15C, 16T (DNA, aptamer) AACGGTTTGATCTCTCGTG; experiment: ThT displacement fluorescence, Hill fit; conditions: pH 7.5, RT, 70 min; 400 nM aptamer; 10 μM thioflavin T displaced
[23] = system: PFOS_JYP_2 upper loop, ninth guanine mutated to cytosine (DNA, aptamer) AACGGTTTCATCTCCTTCGTG; experiment: ThT displacement fluorescence, Hill fit; conditions: pH 7.5, RT, 70 min; 400 nM aptamer; 10 μM thioflavin T displaced
[24] = system: PFOS_JYP_6 (72 nt, qPCR) (DNA, aptamer) GGAGGCTCTCGGGACGACGGCAGCTCAGCATCTTTGTTGCCCCTGACTGTCGTCCCGATGCTGCAATCGTAA; experiment: qPCR Ct change of aptamer-gold nanoparticle complex; conditions: Mg2+ 2 mM (PBS); 1x PBS, pH 7.5; 100 pmol aptamer; 0-400 pM PFOS

With `CCCCCCCCS(=O)(=O)O` the binding [1] was “no”.

With `O=C(O)C(F)(F)C(F)(F)C(F)(F)C(F)(F)C(F)(F)C(F)(F)C(F)(F)C(F)(F)C(F)(F)F` the binding [1] was “weak”.

For `O=C(O)C(F)(F)C(F)(F)C(F)(F)C(F)(F)C(F)(F)C(F)(F)C(F)(F)C(F)(F)F`, the binding [1] was “weak” and the binding [2] was “weak”.

For `O=C(O)C(F)(F)C(F)(F)C(F)(F)C(F)(F)C(F)(F)C(F)(F)C(F)(F)F`, the binding [1] was “weak” and the binding [2] was “weak”.

In the case of `O=C(O)C(F)(F)C(F)(F)C(F)(F)F`, the binding [1] is reported as “no”.

For `O=S(=O)(O)C(F)(F)C(F)(F)C(F)(F)C(F)(F)C(F)(F)C(F)(F)C(F)(F)C(F)(F)F`, the binding [3] was “no”, the KD [4] was 6.93 ± 0.15 µM and the KD [5] was 6.76 ± 0.20 µM. It also gave a KD [6] of 7.82 ± 0.19 µM, a KD [7] of 6.87 ± 0.06 µM and a KD [8] of 7.33 ± 0.21 µM. For the same molecule, the KD [9] was 7.69 ± 0.04 µM, the KD [10] was 8.42 ± 0.34 µM and the KD [11] was 11.21 ± 0.16 µM. The KD [12] was 6.77 ± 0.16 µM, the KD [13] was 7.99 ± 0.50 µM and the KD [14] was 8.86 ± 0.53 µM. It also gave a KD [15] of 8.30 ± 0.65 µM, a KD [16] of 8.60 ± 0.27 µM and a KD [17] of 7.57 ± 0.12 µM. The KD [18] was 7.97 ± 0.49 µM, the KD [19] was 7.35 ± 0.42 µM and the KD [20] was 8.19 ± 0.04 µM. The KD [21] was 8.82 ± 0.37 µM, the KD [22] was 7.86 ± 0.18 µM and the KD [23] was 18.23 ± 1.92 µM. The binding [24] was “yes”.

With `O=S(=O)(O)C(F)(F)C(F)(F)C(F)(F)C(F)(F)C(F)(F)C(F)(F)F` the binding [1] was “weak” and the binding [2] was “weak”.

For `O=S(=O)(O)C(F)(F)C(F)(F)C(F)(F)C(F)(F)F`, the binding [1] was “no”.

Source: article PMC12368987 (2025)
